Source: US12091426B2, “Bifunctional degraders of hematopoietic progenitor kinase and therapeutic uses thereof” (Nurix Therapeutics, Inc., priority 2021, dated 2024)

Biological target: T1, HPK1 (Homo sapiens, UniProt Q92918)
T1 construct: A HiBiT tag was introduced by CRISPR on the N terminus of HPK1 in Jurkat cells; host or cells: Jurkat cells (ATCC TIB-152), monoclonal line with CRISPR knock-in of HiBiT at the endogenous HPK1 locus
Assay: HPK1 Cellular HiBit Degradation Assay
Type: cell-based
Details: HiBiT HPK1 Jurkat cells, 24 hrs; for DC50: concentration at which 50% of HPK1 was remaining, read-out: DC50 Category; for Dmax: Jurkat, read-out: Dmax Category
Procedure: HPK1 Cellular HiBit Degradation Assay
A HiBiT tag was introduced by CRISPR on the N terminus of HPK1 in Jurkat cells (ATCC® TIB-152) to allow quantitation of HPK1 protein levels in a monoclonal human cell line. Cells were plated at 1×10^6 cells/mL, 30 uL/well (3×10^4 cells/well) in complete RPMI 1640 (10% heat inactivated FBS, 1% L-glutamine) in 384-well assay plates (Corning, cat. no. 3570). HPK1 chimeric targeting molecules (CTMs) were added in an 11 point dilution series (11-point, 3.16-fold) with a final assay concentration range of 10 uM to 0.1 nM. The parental Jurkat cell line, with no HiBiT insertion, was included in the assay as a background control. Cell treated with a DMSO vehicle control was used to determine the maximum signal defining 100% HPK1 in the cell. Cells were incubated for 24 hrs at 37° C./5% CO2. Following incubation, 30 uL of complete Nano-Glo HiBiT Lytic Detection Reagent (Promega cat. no. N3040) was added. Cells were incubated for 10 min at room temperature and luminescence was read on an EnVision plate reader (Perkin Elmer, 0.1 sec per well). Viability was assessed in the same plate using Cell Titer Fluor (Promega) and read on an EnVision plate reader to ensure results were not the effect of cytotoxicity. Percent HPK1 remaining per sample was calculated as follows:
[formula] % HPK1 remaining values were plotted as a function of compound concentration and curves were fit using the Prism (GraphPad) equation “log(inhibitor) vs response−Variable slope (four parameters)”. Dmax values were calculated by identifying the lowest % remaining and subtracting from 100. DC50 values were determined by extrapolating from the curve the concentration at which 50% of HPK1 was remaining based on the DMSO control.
HiBiT HPK1 Jurkat cell lines were used to evaluate the total protein levels of HPK1 in a robust human cellular high throughput format. The level of HPK1 remaining following treatment with HPK1 CTMs is reported as Dmax (maximum degradation) achieved at 24 hours when compared to vehicle treated controls. […] These decreases were not a result of cytotoxicity measured by a viability assessment.

[1] = maximum degradation vs DMSO vehicle control

T1 sequence (Q92918 whole entry): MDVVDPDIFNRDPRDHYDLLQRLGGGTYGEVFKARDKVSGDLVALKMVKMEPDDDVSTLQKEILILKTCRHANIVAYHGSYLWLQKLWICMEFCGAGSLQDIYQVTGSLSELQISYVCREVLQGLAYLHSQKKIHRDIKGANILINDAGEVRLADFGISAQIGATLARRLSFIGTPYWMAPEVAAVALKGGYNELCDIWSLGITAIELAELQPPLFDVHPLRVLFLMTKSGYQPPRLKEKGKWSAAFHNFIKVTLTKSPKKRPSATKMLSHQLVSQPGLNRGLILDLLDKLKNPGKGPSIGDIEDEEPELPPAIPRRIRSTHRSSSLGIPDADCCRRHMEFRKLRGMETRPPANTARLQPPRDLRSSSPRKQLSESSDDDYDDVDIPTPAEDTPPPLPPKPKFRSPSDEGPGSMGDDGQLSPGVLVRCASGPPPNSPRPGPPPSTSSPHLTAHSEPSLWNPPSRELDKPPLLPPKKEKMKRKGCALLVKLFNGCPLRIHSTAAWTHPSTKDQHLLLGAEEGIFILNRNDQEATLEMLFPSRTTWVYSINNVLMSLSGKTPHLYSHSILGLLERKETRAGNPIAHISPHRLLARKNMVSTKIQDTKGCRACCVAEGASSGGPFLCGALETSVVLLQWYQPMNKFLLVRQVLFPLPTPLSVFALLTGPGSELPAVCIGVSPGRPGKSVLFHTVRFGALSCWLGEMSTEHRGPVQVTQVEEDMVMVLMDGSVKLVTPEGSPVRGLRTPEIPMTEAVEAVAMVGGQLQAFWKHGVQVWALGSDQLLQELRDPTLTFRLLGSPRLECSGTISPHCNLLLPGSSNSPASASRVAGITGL

Row | Compound | DC50 | Dmax [1] | Dmax Category [1]
1 | CC(C)n1cnc2cc(-c3ccc4c(c3)N([C@H]3C[C@@H](N5CCCCC5)C3)C(=O)C43CCN(C(=O)C4[C@@H]5C[C@H]4CN(C(=O)CC4CCN(c6ccc(C7CCC(=O)NC7=O)cn6)CC4)C5)CC3)nc(NC3CC3)c21 (stereo partly drawn) [Example 240, 3-(6-(4-(2-((1R,5S,6S)-6-(6-(4-(cyclopropylamino)-3-isopropyl-3H-imidazo[4,5-c]pyridin-6-yl)-2-oxo-1-((1S,3S)-3-(piperidin-1-yl)cyclobutyl)spiro[indoline-3,4′-piperidine]-1′-carbonyl)-3-azabicyclo[3.1.1]heptan-3-yl)-2-oxoethyl)piperidin-1-yl)pyridin-3-yl)piperidine-2,6-dione] | < 0.1 µM | > 85% | –
2 | CC(C)n1cnc2cc(-c3ccc4c(c3)N([C@H]3C[C@@H](N5CCCCC5)C3)C(=O)C43CCN(C(=O)CN4CCC(OCC#Cc5cccc6c5n(C)c(=O)n6C5CCC(=O)NC5=O)CC4)CC3)nc(NC3CC3)c21 (mixture of isomers) [Example 229, (3RS)-3-[4-(3-{[1-(2-{6-[4-(cyclopropylamino)-3-(propan-2-yl)-3H-imidazo[4,5-c]pyridin-6-yl]-2-oxo-1-[(1S,3S)-3-(piperidin-1-yl)cyclobutyl]-1,2-dihydrospiro[indole-3,4′-piperidin]-1′-yl}-2-oxoethyl)piperidin-4-yl]oxy}prop-1-yn-1-yl)-3-methyl-2-oxo-2,3-dihydro-1H-1,3-benzodiazol-1-yl]piperidine-2,6-dione] | < 0.1 µM | 70 to 85% | –
3 | CC(C)n1cnc2cc(-c3ccc4c(c3)N([C@H]3C[C@@H](N5CCCCC5)C3)C(=O)C43CCN(C(=O)[C@@H]4C[C@H]5CC[C@@H](C4)N5C(=O)C4CCN(c5ccc(C6CCC(=O)NC6=O)cc5)CC4)CC3)nc(NC3CC3)c21 (mixture of isomers) [Example 262, (3RS)-3-(4-{4-[(1R,3R,5S)-3-({6-[4-(cyclopropylamino)-3-(propan-2-yl)-3H-imidazo[4,5-c]pyridin-6-yl]-2-oxo-1-[(1S,3S)-3-(piperidin-1-yl)cyclobutyl]-1,2-dihydrospiro[indole-3,4′-piperidin]-1′-yl}carbonyl)-8-azabicyclo[3.2.1]Octane-8-carbonyl]piperidin-1-yl}phenyl)piperidine-2,6-dione] | < 0.1 µM | 70 to 85% | –
4 | Cc1cc(C2CCC(=O)NC2=O)cnc1N1CCC(C(=O)N2CCC(C)(C(=O)N3CCC4(CC3)C(=O)N(C3CC(N5CCCCC5)C3)c3cc(-c5cc6ncn(C(C)C)c6c(NC6CC6)n5)ccc34)CC2)CC1 (racemic) [Example 148, (3RS)-3-(6-{4-[4-({6-[4-(cyclopropylamino)-3-(propan-2-yl)-3H-imidazo[4,5-c]pyridin-6-yl]-2-oxo-1-[(1S,3S)-3-(piperidin-1-yl)cyclobutyl]-1,2-dihydrospiro[indole-3,4′-piperidin]-1′-yl}carbonyl)-4-methylpiperidine-1-carbonyl]piperidin-1-yl}-5-Methylpyridin-3-yl)piperidine-2,6-dione] | < 0.1 µM | – | B (B: >70%-<85%)
5 | CC(C)n1cnc2cc(-c3ccc4c(c3)N([C@H]3C[C@@H](N5CCCCC5)C3)C(=O)C43CCN(C(=O)[C@@H]4CCN(C(=O)[C@H]5CC[C@H](Oc6ccc(C7CCC(=O)NC7=O)cn6)CC5)C4)CC3)nc(NC3CC3)c21 (mixture of isomers) [Example 16, (3RS)-3-(6-{[(1R,4R)-4-[(3R)-3-({6-[4-(cyclopropylamino)-3-(propan-2-yl)-3H-imidazo[4,5-c]pyridin-6-yl]-2-oxo-1-[(1S,3S)-3-(piperidin-1-yl)cyclobutyl]-1,2-dihydrospiro[indole-3,4′-piperidin]-1′-yl}carbonyl)pyrrolidine-1-carbonyl]cyclohexyl]oxy}pyridin-3-yl)piperidine-2,6-dione] | 0.5 to 1 µM | 70 to 85% | –
6 | CC(C)n1cnc2cc(-c3ccc4c(c3)N([C@H]3C[C@@H](N5CCCCC5)C3)C(=O)C43CCN(C(=O)c4ccc(C(=O)N5CCN(c6ccc(C7CCC(=O)NC7=O)cc6)CC5)cc4)CC3)nc(Nc3ccccc3F)c21 (mixture of isomers) [Example 40, (3RS)-3-[4-(4-{4-[(6-{4-[(2-fluorophenyl)amino]-3-(propan-2-yl)-3H-imidazo[4,5-c]pyridin-6-yl}-2-oxo-1-[(1S,3S)-3-(piperidin-1-yl)cyclobutyl]-1,2-dihydrospiro[indole-3,4′-piperidin]-1′-yl)carbonyl]benzoyl}piperazin-1-yl)phenyl]piperidine-2,6-dione] | 0.5 to 1 µM | 50 to 70% | –
7 | CC(C)n1cnc2cc(-c3ccc4c(c3)N([C@H]3C[C@@H](N5CCCCC5)C3)C(=O)C43CCN(C(=O)C4CCN(C(=O)[C@H]5CC[C@H](Nc6ccc(C7CCC(=O)NC7=O)cc6)CC5)CC4)CC3)nc(Nc3ccccc3F)c21 (mixture of isomers) [Example 54, (3RS)-3-(4-{[(1R,4R)-4-{4-[(6-{4-[(2-fluorophenyl)amino]-3-(propan-2-yl)-3H-imidazo[4,5-c]pyridin-6-yl}-2-oxo-1-[(1S,3S)-3-(piperidin-1-yl)cyclobutyl]-1,2-dihydrospiro[indole-3,4′-piperidin]-1′-yl)carbonyl]piperidine-1-carbonyl}cyclohexyl]amino}phenyl)piperidine-2,6-dione] | < 0.1 µM | 70 to 85% | –

Further lines, with some results ahead:

Row | DC50 | Dmax [1] | Compound | Dmax Category [1]
8 | < 0.1 µM | 70 to 85% | CC(C)n1cnc2cc(-c3ccc4c(c3)N([C@H]3C[C@@H](N5CCCCC5)C3)C(=O)C43CCN(C(=O)C4(C)CCN(C(=O)[C@H]5CC[C@H](Oc6ccc(C7CCC(=O)NC7=O)cc6)CC5)CC4)CC3)nc(Nc3ccncc3F)c21 (mixture of isomers) [Example 103, (3RS)-3-(4-{[(1R,4R)-4-{4-[(6-{4-[(3-Fluoropyridin-4-yl)amino]-3-(propan-2-yl)-3H-imidazo[4,5-c]pyridin-6-yl}-2-oxo-1-[(1S,3S)-3-(piperidin-1-yl)cyclobutyl]-1,2-dihydrospiro[indole-3,4′-piperidin]-1′-yl)carbonyl]-4-methylpiperidine-1-carbonyl}cyclohexyl]oxy}phenyl)piperidine-2,6-dione] | –
9 | < 0.1 µM | 70 to 85% | CC(C)n1cnc2cc(-c3ccc4c(c3)N([C@H]3C[C@@H](N5CCCCC5)C3)C(=O)C43CCN(C(=O)C4(C)CCN(C(=O)C5CCN(c6ccc(C7CCC(=O)NC7=O)cc6)CC5)CC4)CC3)nc(NC3CC3)c21 (mixture of isomers) [Example 111, (3RS)-3-(4-{4-[4-({6-[4-(cyclopropylamino)-3-(propan-2-yl)-3H-imidazo[4,5-c]pyridin-6-yl]-2-oxo-1-[(1S,3S)-3-(piperidin-1-yl)cyclobutyl]-1,2-dihydrospiro[indole-3,4′-piperidin]-1′-yl}carbonyl)-4-methylpiperidine-1-carbonyl]piperidin-1-yl}phenyl)piperidine-2,6-dione] | –
10 | 0.1 to 0.5 µM | 50 to 70% | CC(C)n1cnc2cc(-c3ccc4c(c3)N([C@H]3C[C@@H](N5CCC[C@H](F)C5)C3)C(=O)C43CCN(C(=O)C4(C)CCN(C(=O)CC5CCN(c6ccc(C7CCC(=O)NC7=O)cn6)CC5)CC4)CC3)nc(NC3CC3)c21 (mixture of isomers) [Example 206, (3RS)-3-[6-(4-{2-[4-({6-[4-(cyclopropylamino)-3-(propan-2-yl)-3H-imidazo[4,5-c]pyridin-6-yl]-2-oxo-1-[(1S,3S)-3-[(3S)-3-fluoropiperidin-1-yl]cyclobutyl]-1,2-dihydrospiro[indole-3,4′-piperidin]-1′-yl}carbonyl)-4-methylpiperidin-1-yl]-2-oxoethyl}piperidin-1-yl)pyridin-3-yl]piperidine-2,6-dione] | –
11 | < 0.1 µM | 70 to 85% | CC(C)n1cnc2cc(-c3ccc4c(c3)N([C@H]3C[C@@H](N5CCCCC5)C3)C(=O)C43CCN(C(=O)C4(C)CCN(C(=O)C5CCN(c6ccc(N7CCC(=O)NC7=O)cn6)CC5(F)F)CC4)CC3)nc(NC3CC3)c21 (stereo partly drawn) [Example 153, 1-(6-{4-[4-({6-[4-(cyclopropylamino)-3-isopropylimidazo[4,5-c]pyridin-6-yl]-2-oxo-1-[(1S,3S)-3-(piperidin-1-yl)cyclobutyl]spiro[indole-3,4′-piperidin]-1′-yl}carbonyl)-4-methylpiperidine-1-carbonyl]-3,3-difluoropiperidin-1-yl}pyridin-3-yl)-1,3-diazinane-2,4-dione] | –
